# Measured values published in PubChem BioAssay AID623941 (Vanderbilt Specialized Chemistry Center, 2012).
# Calls of active or inactive are those of the source.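 How the source made its calls: active means response rises or falls steadily with concentration, forming a dose-response curve as judged by the submitting lab; inactive means the rest.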
# Molecular target: Muscarinic acetylcholine receptor M2 (Rattus norvegicus) (UniProt P10980)
# Assay: rat M2 muscarinic receptor PAM counter-screen, SAR follow-up, selectivity assay for M4 PAM optimization project, CHO cells, Gqi5 chimera, calcium, ACh EC20 (AID 623941)
# Settings: CHO rM2/Gqi5 calcium fluorescence, ACh EC20 potentiation; for % ACh max response: at 30 µM (top of the series)
# Chain of Muscarinic acetylcholine receptor M2 (Rattus norvegicus) (P10980 whole entry, looked up): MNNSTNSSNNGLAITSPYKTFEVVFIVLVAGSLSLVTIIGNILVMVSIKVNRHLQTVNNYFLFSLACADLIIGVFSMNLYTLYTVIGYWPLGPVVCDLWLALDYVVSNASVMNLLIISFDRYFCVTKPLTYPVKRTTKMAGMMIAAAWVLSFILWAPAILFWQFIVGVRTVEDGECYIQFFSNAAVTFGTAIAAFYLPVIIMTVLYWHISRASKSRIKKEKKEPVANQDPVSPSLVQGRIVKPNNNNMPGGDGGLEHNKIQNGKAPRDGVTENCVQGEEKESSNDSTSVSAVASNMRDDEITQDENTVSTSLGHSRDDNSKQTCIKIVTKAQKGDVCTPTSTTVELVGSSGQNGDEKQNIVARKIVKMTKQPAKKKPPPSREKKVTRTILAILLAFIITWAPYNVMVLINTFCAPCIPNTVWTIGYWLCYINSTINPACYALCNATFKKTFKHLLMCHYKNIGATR
Compound,outcome,% ACh max response,also measured
Cc1nc2sc(C(=O)NCc3ccccc3)c(N)c2c(C)c1Cl,inactive,–,–
Cc1nc2sc(C(=O)NC3CC3)c(N)c2c(C)c1Cl,–,–,EC50: 640 nM
Cc1nc2sc(C(=O)NCc3ccc4c(c3)OCO4)c(N)c2c(C)c1Cl,inactive,–,–
COc1ccc(C)c2sc(NC(=O)c3ccncc3)nc12,–,inactive,–
Cc1nc2sc(C(=O)NCc3nccs3)c(N)c2c(C)c1Cl,–,inactive,–
Cc1nc2sc(C(=O)NCc3cccc(F)c3F)c(N)c2c(C)c1Cl,–,inactive,–

# Now from value to compound, other results behind:
outcome,% ACh max response,Compound,also measured
inactive,–,Cc1nc2sc(C(=O)NCc3ccncc3)c(N)c2c(C)c1Cl,–
–,inactive,Cc1nc2sc(C(=O)NCc3ccncn3)c(N)c2c(C)c1Cl,–
–,inactive,Cc1nc2sc(C(=O)NCCc3ccncc3)c(N)c2c(C)c1Cl,–
inactive,–,Cc1nc2sc(C(=O)NCc3cccnc3)c(N)c2c(C)c1Cl,–
